In the oligonucleotide strings, read from the 5' end, every base follows the letter of its sugar. An asterisk marks phosphorothioate; unmarked linkages are phosphodiester. Other units and linkages are bracketed, terminal groups are in braces. A string of capitals states the bases alone. d = 2'-deoxy (DNA); m = 2'-O-methyl
Key:
SH-SY5Y cells = assay: Cell death in FDX1 regulated SH-SY5Y cells with Aβ-Cu treatment; format: cell-based; details: FDX1 knocked down cells; 25 µM Tempol or 100 μM Trolox
Text: FIGS. 21A-21C depict cell death in FDX1 regulated SH-SY5Y cells with Aβ-Cu treatment. […] For all graphs, ****p<0.0001, ***p<0.001, **p<0.01, and ns is p>0.05.
Both oxidative stresses and proteotoxic stresses mediated cuproptosis were also observed in neurons during copper overload by elesclomol (ES), which is a copper ionophore, contributing to neuronal death. The high redox properties of copper can promote the Aβ-induced oxidative stress and subsequent neuronal death. […] The hypothesis is that the property of Aβ can be acted as a copper ionophore is part of what contributes to the pathological effects of cuproptosis in AD. To explore more about whether cuproptosis is related to AD neurodegeneration and understand the role of Aβ-Cu in neuronal death, the viability of SH-SY5Y cells with FDX1 knocked down by RNAi were monitored by stimulating with different CuCl2 concentration and 10 μM Aβ for overnight. […] Cu^2+ ions bound to Aβ are consistently more toxic to neuronal cells than Aβ in the absence of Cu^2+ ions.

[1] = test system: corpus callosum brain region; assay: Iron changes in the cuprizone model of Multiple Sclerosis; format: in vivo, mice; details: over the course of cuprizone treatment; back to normal upon removal
Experimental: The study also co-stained the sensors with other antibodies to identify cell identities in neuron degenerative diseases, such as Alzheimer's disease. The antibody staining was performed before staining iron sensors. After traditional immunochemistry staining (need to avoid antigen exposures that require H2O2 or other oxidative reagents), brain slices were changed into the BisTris buffer for iron sensors and incubated with iron sensors for 30 minutes. Then the brain slices were mounted onto slices and imaged immediately to minimize the background cleavage or degradation of the sensors. The iron redox changes in specific cell types were evaluated by taking images with a confocal microscope and analyzing the iron signal that colocalized with specific antibodies. […] The study also observed a decrease in iron levels in microglial cells of wildtype mice brains in the hippocampal region, but an increase in iron levels in 3×Tg mice brains. […] More detailed investigations are still going on to test how they are correlated with this disease process.
With a similar technique, the iron changes were studied with the cuprizone model of Multiple Sclerosis as well. […] The Fe^3+/Fe^2+ elevation was back to normal upon the removal of the chemical, and remyelination of the mice brains.

HepG2 or Hela cells = assay: Simultaneous imaging of labile Fe^2+ and Fe^3+ in living cells treated with Tf or DFO; format: cell-based
Experimental: For delivery of DNAzyme sensors using PEI (66, 67), the corresponding Fe(II)-H5-ErS, Fe(II)-H5-iErS, Fe(III)-B12-ErS, and Fe(III)-B12-iErS (final concentration of 10 μM) were mixed in the Fe^2+ buffer and Fe^3+ buffer separately. The mixtures were annealed at 95° C. for 5 min and stored at room temperature to allow full hybridization. PEI (25 kDa) was dissolved in water at 1 mg/ml. […] The normal cell medium was replaced with iron-deficient medium before the PEI-ErS or PEI-iErS was added to the cells grown in the plates.
After incubating HepG2 cells with PEI-ErS or PEI-iErS complex for 4 hours, cells were washed with phosphate-buffered saline (PBS) twice to remove excess amounts of complexes in medium. Then, the cells were stained by Hoechst 33258 for 15 min. Images were obtained using a Zeiss LSM 880 confocal microscope at 63× oil objective lens with numerical aperture 1.40 and immersion medium Immersol 518 F (Zeiss) at the UIUC IGB Core Facilities. Florescence emission of Hoechst 33258 was measured over 450 to 500 nm with excitation at 401 nm. Fe(II)-H5 was excited by 488 nm and measured over 500 to 550 nm, and Fe(III)-B12 was excited at 633 nm and measured over 640 to 700 nm. A laser power of 67% and pinhole size of 1 […] (AU) were used for the cellular images. Acquired images were analyzed by ImageJ using JACoP (88, 89). No background subtraction, Z-stacks, Gaussian blur filter, or change thresholds were performed for visualizing the figures. For cell fluorescence quantification, the study quantified the average fluorescence signals intensity in five cells (for TurboFect transfected cells) or five LysoTracker-labeled regions in different cells (for PEI transfected cells), per picture and three pictures per group with Image J (88), for the statistical comparison between groups.
Simultaneous imaging of labile Fe^2+ and Fe^3+ in living cells: HepG2 or Hela cells were cultured in glass-bottom dishes until about 70% confluence. The cells were pretreated with iron-deficient MEM containing either 100 μM DFO, 100 μM ferric ammonium citrate, […] holo-Tf, or 50 μM Tf for 4 hours, and then, the medium was replaced with an iron-deficient MEM containing PEI-ErS or PEI-iErS complexes or Opti-MEM containing 1 μl of TurboFect transfection reagent as described above for 4 hours. Before imaging, the cells were stained by LysoTracker Red and Hoechst 33258 for 15 min. After washing with PBS, the cells were incubated in iron-deficient MEM or regular DMEM, respectively, during the imaging.
Data processing and statistical analysis: To have a direct comparison of the iron amount between groups, the background signals were normalized by subtracting the fluorescence signals in iErS groups from the ErS groups (F-F0). No Z-stacks or change thresholds were used for statistical analysis. Graphs were plotted with GraphPad (GraphPad Software Inc.) or Origin (OriginLabs Corporation) and correspond to a single experiment. Bars represent means±SEM. Two-tailed distribution and two-sample equal variance t test were used for analyzing significance. Dixon's Q tests were performed to identify and exclude outliners. *P<0.05, **P<0.01, and ***P <0.001. […] The presented data described the quantification from single representative replicates from those biological replicates.

cells = assay: Fe signal changes detected with DNAzyme sensors and flow cytometry; format: cell-based; details: treated with Transferrin
Text: Preliminary results: The study detected the Fe signal changes with DNAzyme sensors and flow cytometry.

[2] = PAGE gel activity assays of Fe^3+ B12 DNAzyme (cleavage site, truncation, pH, buffer, mutation combinations, selectivity); format: biochemical; details: presence of Fe^3+
Text: RNA Cleavage Dependence of Fe^2+ H5 and Fe^3+ B12 DNAzymes: To investigate the Fe^2+ H5 and Fe^3+ B12 DNAzymes, various cleavage site modifications were incorporated into the substrate strands. The original Fe^2+ H5 DNAzyme was combined with Fe^2+ H5 substrate strands containing either a 2′-hydroxyl (2′OH), 2′-hydrogen (2′H), or 2′O-methyl (2′OMe) at the cleavage site. The original Fe^2+ H5 DNAzyme cleaves the Fe^2+ H5 substrate strand containing 2′OH at the cleavage site in the presence of Fe^2+ under anaerobic conditions. […] Similarly, the original Fe^3+ B12 DNAzyme was combined with Fe^3+ B12 substrate strands containing either 2′OH, 2′H, or 2′OMe at the cleavage site. The original Fe^3+ B12 DNAzyme cleaves the Fe^3+ B12 substrate strand containing 2′OH at the cleavage site in the presence of Fe^3+. […]
Truncations of Fe^2+ H5 and Fe^3+ B12 DNAzymes' Binding Arms: To further investigate the Fe^2+ H5 and Fe^3+ B12 DNAzymes, the DNAzymes were truncated at the 5′ and 3′ ends and tested using the FAM-labeled original substrate strand through activity assays assessed by PAGE gel. […]
Similarly, the pH dependency of Fe^3+ B12 was tested across a range of pH 4.0 to 6.0 with 100 μM FeCl3. […] Fluorescence intensity was monitored over time using a 5′ Alexa Fluor™ 647-labeled substrate and a 3′ Iowa Black™ RQ quencher-labeled DNAzyme at an enzyme-to-substrate ratio of 1:1. […]

HepG2 cells [3] = assay: MTT assay of cytotoxicity of RSL3; format: cell-based; details: 1 μM RSL3, over 8 hours
Experimental: To measure the cytotoxicity of RSL3 to HepG2 cells, a standard MTT assay was used. HepG2 cells were seeded at a density of 15,000 cells per well in 96-well plates. When the cells grew to 80% confluence, the medium was replaced by the normal MEM containing 1 μM RSL3 at different time points (0, 2, 4, 6, 8, and 10 hours). Afterward, the cell medium was replaced by the iron-deficient MEM containing PEI-ErS or PEI-iErS, incubated in a 37° C., 5% CO2 incubator for another 4 hours. The absorbance at 570 nm was measured with a SpectraMax M2 microplate reader to obtain the MTT assay readings. The untreated cells were set as a blank control for normalization.

cultured cell lines = assay: Iron redox changes in cultured cell lines with ferroptosis inducers and NCOA4 regulators; format: cell-based
HepG2 cells [4] = assay: Ferroptosis-induced fluctuations of labile Fe^2+ and Fe^3+ pools (RSL3); format: cell-based
Experimental: Ferroptosis-induced fluctuations of labile Fe^2+ and Fe^3+ pools: HepG2 cells were treated with 1 μM RSL3 in normal MEM at different time points (0, 2, 4, 6, 8, and 10 hours). Then, the cell medium was replaced by iron-deficient MEM containing PEI-ErS or PEI-iErS and incubated in a 37° C., 5% CO2 incubator for another 4 hours. Before imaging, the cells were stained by LysoTracker Red and Hoechst 33258 for 15 min. After washing with PBS, the cells were incubated in iron-deficient MEM during the imaging.

[5] = 5 μM Tf group, iron-deficient medium

Q: With CC1(C)CC(O)CC(C)(C)N1[O] [Tempol] as the compound, how does the “rescue of Aβ-Cu induced cell death by ROS scavenger” value (SH-SY5Y cells) read?
A: fail to fully rescue

Q: Which “iron redox (Fe^3+/Fe^2+) in corpus callosum” value [1] does the source give for O=C(NN=C1CCCCC1)C(=O)NN=C1CCCCC1 [cuprizone] here?
A: elevated iron redox

Q: Which “increase of Fe^2+ sensor signal” value (HepG2 or Hela cells; [5]) does the source give for transferrin [Tf] here?
A: 1.9 fold

Q: And the “increase of Fe^3+ sensor signal” value (HepG2 or Hela cells; [5])?
A: 1.6 fold

Q: What about the “increase for both Fe^3+ and Fe^2+” value (HepG2 or Hela cells; normal cell media) of the same compound?
A: around 4 fold

Q: And the “change of the Fe^3+/Fe^2+ ratio” value (HepG2 or Hela cells; treated cells)?
A: No significant change

Q: What about the “cells with elevated fluorescence intensity (moved from Q4 to Q2)” value (cells) of the same compound?
A: More than 20%

Q: For “Fe^3+ B12 Original Substrate (2′OMe) (dCdTdCdTdAdTdTdAmGdGdGdAdGdAdCdTdCdGdCdAdTdGdCdCdGdC)”, which “cleavage by the original Fe^3+ B12 DNAzyme” value [2] is on record?
A: does not cleave

Q: For Cc1c(C)c2c(c(C)c1O)CCC(C)(C(=O)O)O2 (stereo not drawn) [Trolox], which “rescue of Aβ-Cu induced cell death by ROS scavenger” value (SH-SY5Y cells) is on record?
A: fail to fully rescue

Q: For “Fe^3+ B12 Original Substrate (2′H) (CTCTATTAGGGAGACTCGCATGCCGC; DNA, backbone not given here)”, which “cleavage by the original Fe^3+ B12 DNAzyme” value [2] is on record?
A: does not cleave

Q: For COC(=O)c1ccc([C@@H]2c3[nH]c4ccccc4c3C[C@@H](C(=O)OC)N2C(=O)CCl)cc1 [RSL3, RAS-selective lethal 3], which MTT assay result (HepG2 cells [3]) is on record?
A: cell death

Q: What about the “Fe^2+ and Fe^3+ during induced ferroptosis” value (cultured cell lines) of the same compound?
A: increased

Q: What about the “Fe^3+/Fe^2+ ratio during induced ferroptosis” value (cultured cell lines) of the same compound?
A: decreased

Q: What about the “increase of Fe^2+” value (HepG2 cells [4]; 1 μM RSL3, from 0 to 2 hours, LysoTracker-labeled region) of the same compound?
A: 2.3 fold

Q: And the “increase of Fe^3+” value (HepG2 cells [4]; 1 μM RSL3, from 0 to 4 hours, LysoTracker-labeled region)?
A: 2.8 fold

Q: And the “increase of Fe^2+” value (HepG2 cells [4]; 1 μM RSL3, from 2 to 4 hours, LysoTracker-labeled region)?
A: 4.3 fold

Q: What about the “Fe^3+/Fe^2+ ratio (Fe redox) during ferroptosis” value (HepG2 cells [4]; RSL3-induced ferroptosis, endo-lysosomes) of the same compound?
A: continuous decrease

Q: What about the “Fe^2+ and Fe^3+ levels in later stage of ferroptosis” value (HepG2 cells [4]; after 4 hours) of the same compound?
A: both iron levels decreased

Source: patent US20250314668A1, “DNAZYMES FOR SENSING AND IMAGING TARGET MOLECULES” (BOARD OF REGENTS, THE UNIVERSITY OF TEXAS SYSTEM, priority 2024, published 2025)
